Data on seven compounds can be found in patent US20250136614A1, “2,7-SUBSTITUTED PYRROLO[2,1-F][1,2,4]TRIAZINE COMPOUND HAVING PROTEIN KINASE INHIBITORY ACTIVITY” (Magicbullettherapeutics Co., Ltd., priority 2021, published 2025).

What all share (assay type): cell-based
In one assay the test system is colo205. Briefly: Cancer cell growth inhibition (CellTiter-Glo, 72 hours). Particulars: Homo sapiens, COLO 205, colo205 cells, read-out: GI50s (μM) colo205. How it is done:
(§1) Seeding 3000 cells per well in a 96-well plate. After cell stabilization, treat the cells with compounds diluted in 0.5% DMSO at a ⅓ serial dilution and culture for 72 hours. Following treatment with CellTiter-Glo, luminescence is produced only in the presence of ATP, as luciferase degrades luciferin. Luminescence values were measured using Envision (PerkinElmer). Based on the measured luminescence values, the concentration of compounds causing cell death was calculated to determine the GI50 value.
(§2) The activity values were categorized into three levels • A: IC50<1 μM • B: 1 μM≤IC50<10 μM, • C: IC50≥10 μM
For orientation: In ATP-based viability assays light output follows the ATP content of the culture.

The subject of a further assay is MDA-MB-231. The assay is described as above. The conditions noted are these: Homo sapiens, MDA-MB-231 cells, read-out: GI50s (μM) MDA-MB-231. How it is done:
as §1, §2

The next assay deals with H23. The description is as above. Particulars: Homo sapiens, NCI-H23, H23 cells, read-out: GI50s (μM) H23. How it is done: as §1, §2
For another assay, the system named is H358. Described as above. The conditions noted are these: Homo sapiens, NCI-H358, H358 cells, read-out: GI50s (μM) H358. As for the experimental part: as §1, §2
The subject of another assay is H1975. Described as above. Particulars: Homo sapiens, NCI-H1975, H1975 cells, read-out: GI50s (μM) H1975. As for the experimental part: as §1, §2
The subject of the next assay is HCT116. The description is as above. Particulars: Homo sapiens, HCT-116, HCT116 cells, read-out: GI50s (μM) HCT116. How it is done:
as §1, §2

Another assay has as its system Ba/F3 parental. Put plainly: Ba/F3 cell growth inhibition (CellTiter-Glo, 72 hours). The conditions noted are these: Mus musculus, BaF3, Ba/F3 parental cells, read-out: Ba/F3 GI50s (μM) parental. As for the experimental part:
(§3) Seeding 3000 cells per well in a 96-well plate. After cell stabilization, treat the cells with compounds diluted in […] at a ⅓ serial dilution and culture for 72 hours. Following treatment with CellTiter-Glo, luminescence is produced only in the presence of ATP, as luciferase degrades luciferin. Luminescence values were measured using Envision (PerkinElmer). Based on the measured luminescence values, the concentration of compounds causing cell death was calculated to determine the GI50 value.
(§4) The activity values were categorized into three levels. • A: IC50<1 μM • B: 1 μM≤IC50<10 μM, • C: IC50≥10 μM

The target of another assay is T1, Ba/F3 FLT3 (ITD) (Homo sapiens, UniProt P36888, cells depend on it, form not given).
T1 sequence (P36888 1-993): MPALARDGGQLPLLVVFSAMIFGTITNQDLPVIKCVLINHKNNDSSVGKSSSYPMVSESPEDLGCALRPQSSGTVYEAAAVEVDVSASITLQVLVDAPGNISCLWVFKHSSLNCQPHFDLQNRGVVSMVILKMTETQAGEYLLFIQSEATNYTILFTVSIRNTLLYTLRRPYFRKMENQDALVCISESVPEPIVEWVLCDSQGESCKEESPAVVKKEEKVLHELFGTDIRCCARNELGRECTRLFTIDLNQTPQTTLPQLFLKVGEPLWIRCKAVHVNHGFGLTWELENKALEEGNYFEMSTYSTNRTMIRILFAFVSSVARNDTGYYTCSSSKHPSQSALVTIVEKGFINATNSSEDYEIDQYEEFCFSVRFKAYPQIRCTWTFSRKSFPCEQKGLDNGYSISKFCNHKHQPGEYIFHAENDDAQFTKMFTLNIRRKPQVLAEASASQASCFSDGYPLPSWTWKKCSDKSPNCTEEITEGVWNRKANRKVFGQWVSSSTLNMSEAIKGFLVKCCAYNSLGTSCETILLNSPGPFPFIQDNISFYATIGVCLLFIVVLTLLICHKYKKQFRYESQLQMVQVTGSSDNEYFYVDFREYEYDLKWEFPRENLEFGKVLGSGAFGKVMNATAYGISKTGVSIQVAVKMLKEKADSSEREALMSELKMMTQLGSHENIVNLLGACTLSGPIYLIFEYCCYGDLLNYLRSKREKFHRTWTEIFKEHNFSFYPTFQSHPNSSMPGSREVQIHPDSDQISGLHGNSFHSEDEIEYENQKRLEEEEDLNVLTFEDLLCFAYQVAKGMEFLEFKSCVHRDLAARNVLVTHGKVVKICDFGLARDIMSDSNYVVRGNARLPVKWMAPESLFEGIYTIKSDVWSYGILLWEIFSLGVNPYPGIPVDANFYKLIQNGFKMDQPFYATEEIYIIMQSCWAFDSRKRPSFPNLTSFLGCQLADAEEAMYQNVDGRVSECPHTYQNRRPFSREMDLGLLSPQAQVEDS
The assay is described as above. Particulars: read-out: Ba/F3 GI50s (μM) FLT3 (ITD). How it is done: as §3, §4

For the compound `CN1CCCn2cc(cn2)Nc2ncc3ccc(n3n2)-c2ccc(cc2)OCC1` [Example 2], the IC50 is 1 to 10 µM with colo205; at least 10 µM with MDA-MB-231; below 1 µM in the assay with H23; below 1 µM in the assay on H358; 1 to 10 µM in the assay on H1975; below 1 µM in the assay on HCT116. In addition, the IC50 in the assay with Ba/F3 parental is 1 to 10 µM. Besides, the GI50 at Ba/F3 FLT3 (ITD) is below 1 µM.
With `CC(=O)N1CCCn2cc(cn2)Nc2ncc3ccc(n3n2)-c2ccc(cc2)OCC1` [Example 3, 1-((2^1Z,4^4E)-4^1H-11-oxa-3,8-diaza-2(7,2)-pyrrolo[2,1-f1][1,2,4]triazina-4(4,1)-pyrazola-1(1,4)-benzenacycloundecaphane-8-yl)ethan-1-one], the IC50 in the assay on colo205 was 1 to 10 µM; in the assay on MDA-MB-231, 1 to 10 µM; in the assay with H23, 1 to 10 µM; in the assay on H358, 1 to 10 µM; in the assay on H1975 it was 1 to 10 µM; in the assay on HCT116 it was below 1 µM. In addition, the IC50 with Ba/F3 parental lay in the range of 1 to 10 µM. Further, the GI50 on Ba/F3 FLT3 (ITD) is below 1 µM.
For the compound `COc1cccc(NC(=O)N2CCCn3cc(cn3)Nc3ncc4ccc(n4n3)-c3ccc(cc3)OCC2)c1` [Example 7, (2^1Z,4^4E)-N-(3-methoxyphenyl)-4^1H-11-oxa-3,8-diaza-2(7,2)-pyrrolo[2,1-f][1,2,4]triazina-4(4,1)-pyrazola-1(1,4)-benzenecycloundecaphane-8-carboxamide], the IC50 with colo205 is at least 10 µM; in the assay with MDA-MB-231 it was at least 10 µM; in the assay with H23, 1 to 10 µM; with H358, 1 to 10 µM; with H1975 it was 1 to 10 µM; in the assay on HCT116, 1 to 10 µM. The IC50 in the assay on Ba/F3 parental is at least 10 µM. Also, the GI50 at Ba/F3 FLT3 (ITD) is below 1 µM.
Turning to `CS(=O)(=O)N1CCCn2cc(cn2)Nc2ncc3ccc(n3n2)-c2ccc(cc2)OCC1` [Example 9, (2^1Z,4^4E)-8-(methylsulfonyl)-4^1H-11-oxa-3,8-diaza-2(7,2)-pyrrolo[2,1-f][1,2,4]triazina-4(4,1)-pyrazola-1(1,4)-benzenecycloundecaphane], the IC50 is 1 to 10 µM in the assay on colo205; at least 10 µM in the assay with MDA-MB-231; 1 to 10 µM with H23; below 1 µM in the assay with H358; 1 to 10 µM with H1975; below 1 µM in the assay on HCT116. Moreover, the IC50 in the assay on Ba/F3 parental lay in the range of 1 to 10 µM. The GI50 at Ba/F3 FLT3 (ITD) is below 1 µM.
In the case of `O=C1CCCCCCn2cc(cn2)-c2ccc3cnc(nn23)Nc2ccc(cc2)OCCCN1` [Example 17, (1^4Z,2^1Z)-1′H-5-oxa-3,9-diaza-2(7,2)-pyrrolo[2,1-f][1,2,4]triazina-1(4,1)-pyrazola-4(1,4)-benzenacyclohexadecaphan-10-one], the IC50 with colo205 was at least 10 µM; in the assay with MDA-MB-231 it was at least 10 µM; with H23 it was 1 to 10 µM; in the assay on H358, at least 10 µM; in the assay on H1975 it was 1 to 10 µM; in the assay with HCT116 it was 1 to 10 µM. Further, in the assay on Ba/F3 parental, the IC50 was at least 10 µM. Moreover, the GI50 at Ba/F3 FLT3 (ITD) was in the range of 1 to 10 µM.
Regarding `O=C1CCCCCCOc2ccc(cc2F)-c2ccc3cnc(nn23)Nc2ccc(cc2)OCCCN1` [Example 20, (Z)-13-fluoro-5,17-dioxa-3,9-diaza-2(7,2)-pyrrolo[2,1-f][1,2,4]triazina-1,4(1,4)-dibenzenacycloheptadecaphan-10-one], the IC50 with colo205, with MDA-MB-231, with H23, in the assay with H358, in the assay with H1975 and in the assay on HCT116 was at least 10 µM throughout. Also, the IC50 in the assay with Ba/F3 parental is at least 10 µM. Besides, the GI50 on Ba/F3 FLT3 (ITD) was in the range of 1 to 10 µM.
For the compound `O=C1CCCCCCOc2ccc(cc2)-c2ccc3cnc(nn23)Nc2ccc(cc2)N2CCN(CCCN1)CC2` [Example 23, (Z)-17-oxa-3,9-diaza-2(7,2)-pyrrolo[2,1-f][1,2,4]triazina-5(1,4)-piperazina-1,4(1,4)-dibenzenacycloheptadecaphan-10-one], the IC50 in the assay on colo205 is 1 to 10 µM; in the assay on MDA-MB-231, at least 10 µM; in the assay on H23, below 1 µM; in the assay with H358 it was 1 to 10 µM; in the assay on H1975 it was 1 to 10 µM; in the assay with HCT116, 1 to 10 µM. In the assay on Ba/F3 parental, the IC50 was at least 10 µM. On Ba/F3 FLT3 (ITD), the GI50 was below 1 µM.
